From US6001880A, “Alkylenediamine derivative, anti-ulcer drug, and antibacterial drug” (Shiseido Co., Ltd., priority 1997, dated 1999)

test system: stress ulcer formation in rats; assay: WIS: Restraint and Water Immersion Stress-Induced Ulcer Inhibition Test; type: in vivo, rat (male Crj:SD or Slc:SD); conditions: 100 mg/kg oral, 10 minutes before 7 h restraint and water immersion (21° C.)
Procedure, shortened: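 Overnight-fasted male SD rats (6–7 weeks, n=5–8) dosed orally at 100 mg/kg in 0.3% CMC-Na or 0.05% Tween 80; 10 min later restrained and immersed to xiphoid in 21° C water for 7 h. Ulcer index is summed glandular erosion length; inhibition % = (1 − UI sample/UI control).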

| Structure (SMILES) | WIS: ulcer formation inhibitory rate |
| --- | --- |
| CCN(CC)CCNC(=O)c1cc(OCC=C(C)C)cc(OCC=C(C)C)c1 [Example 14] | 86% |
| CCN(CC)CCNC(=O)c1cc(OC/C=C(\C)CCC=C(C)C)ccc1OC/C=C(\C)CCC=C(C)C [Example 16] | 82% |
| CC(C)=CCC/C(C)=C/COc1ccc(OC/C=C(\C)CCC=C(C)C)c(C(=O)NCCN(C(C)C)C(C)C)c1 [Example 17] | 62% |
| CCN(CC=C(C)C)c1ccc(C(=O)NCCN(C(C)C)C(C)C)cc1 [Example 28] | 87% |
| CCN(CC)CCNC(=O)c1cc(OC)c(OC/C=C(\C)CCC=C(C)C)c(OC)c1 [Example 37] | 69% |
| CCN(CC)CCNC(=O)c1cc(OC)c(OC/C=C(/C)CCC=C(C)C)c(OC)c1 [Example 38] | 86% |
| COc1cc(C(=O)NCCN(C)C)cc(OC/C=C(\C)CCC=C(C)C)c1OC [Example 42] | 81% |

test system: not listed separately; assay: MTT: Cell Damaging and Protecting Effect Test; type: cell-based, rabbit (male Japanese White); conditions: rabbit, gastric corpus mucosa cells, final concentration 10^-4 M, smaller value is better, read-out: MTT: cell damaging rate
Procedure, shortened: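 Primary gastric corpus mucosal cells from male Japanese White rabbit, enzymatically dispersed and cultured 3 days to confluence. Compound at final 10^-4 M added with MTT for 4 h at 37 °C; formazan read at OD 570–630. Cell damaging rate (%) calculated against control absorbance.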

| Structure (SMILES) | cytotoxicity at 4 h, 100 µM |
| --- | --- |
| CCN(CC)CCNC(=O)c1cc(OCC=C(C)C)cc(OCC=C(C)C)c1 [Example 14] | 43% |
| CCN(CC)CCNC(=O)c1cc(OC/C=C(\C)CCC=C(C)C)ccc1OC/C=C(\C)CCC=C(C)C [Example 16] | 40% |
| CC(C)=CCC/C(C)=C/COc1ccc(OC/C=C(\C)CCC=C(C)C)c(C(=O)NCCN(C(C)C)C(C)C)c1 [Example 17] | 27% |
| CCN(CC=C(C)C)c1ccc(C(=O)NCCN(C(C)C)C(C)C)cc1 [Example 28] | 16% |
| CCN(CC)CCNC(=O)c1cc(OC)c(OC/C=C(\C)CCC=C(C)C)c(OC)c1 [Example 37] | 39% |
| CCN(CC)CCNC(=O)c1cc(OC)c(OC/C=C(/C)CCC=C(C)C)c(OC)c1 [Example 38] | 30% |
| COc1cc(C(=O)NCCN(C)C)cc(OC/C=C(\C)CCC=C(C)C)c1OC [Example 42] | 17% |

test system: mice; assay: not given; design: species or system mouse (male Slc:ICR); conditions: mouse, in vivo
Description: AT: Single Dose Toxicity Pretest
Male Slc:ICR mice (5-week-old) were used. Each group has 3 to 5 mice and each mouse was fasted, but allowed free access to water, for 4 to 5 hours from 9 a.m. in the test day. Then, 2,000 mg/10 ml/kg of the sample compound dissolved or suspended in an aqueous solution of 0.5% sodium carboxymethyl cellulose was orally administered thereto. To a control, only the vehicle was administered. […] The body weight was measured before and after the fasting as well as at the same time everyday. The dead animals were immediately subjected to autopsy and their organs were observed by naked eyes. Also, the living animals were sacrificed with ether or carbon dioxide one week after the administration and then their organs were observed by naked eyes.
The toxicity at the single dose of 2,000 mg/kg of the sample compound was expressed as being classified into 5 levels.
5: mortality rate is 0%; no toxicity is found at all both in behavior and organs.
4: Mortality rate is 0%; while no toxicity is found in organs, slight toxicity is observed in behavior or body weight increase.
3: While there is a dead animal (though not all the animals are dead), no toxicity is found in organs.
2: Regardless of whether there is a dead animal or not, toxicity is found in organs.
1: All the animals are dead.

| Structure (SMILES) | AT: single dose toxicity level |
| --- | --- |
| CCN(CC)CCNC(=O)c1cc(OCC=C(C)C)cc(OCC=C(C)C)c1 [Example 14] | 5 |
| CCN(CC)CCNC(=O)c1cc(OC/C=C(\C)CCC=C(C)C)ccc1OC/C=C(\C)CCC=C(C)C [Example 16] | 5 |
| CC(C)=CCC/C(C)=C/COc1ccc(OC/C=C(\C)CCC=C(C)C)c(C(=O)NCCN(C(C)C)C(C)C)c1 [Example 17] | 5 |
| CCN(CC)CCNC(=O)c1cc(OC)c(OC/C=C(\C)CCC=C(C)C)c(OC)c1 [Example 37] | 4 |
| CCN(CC)CCNC(=O)c1cc(OC)c(OC/C=C(/C)CCC=C(C)C)c(OC)c1 [Example 38] | 5 |
| COc1cc(C(=O)NCCN(C)C)cc(OC/C=C(\C)CCC=C(C)C)c1OC [Example 42] | 3 |
